Test results taken from patent EP0476120B1, “PROCESS FOR PREPARING EQUIMOLAR SALTS OF ASPARTIC ACID AND MAGNESIUM, MAGNESIUM ASPARTATE SALT OBTAINED BY SAID PROCESS AND ITS APPLICATIONS” (LA[…] SPINDLER, priority 1990, dated 1991).
Where two headings read alike, the source gives them in different places.

How the values were obtained:
[1] = tested on: singes cynomolggus (Macaca fascicularis); details: monkey
Description: L'étude a été réalisée chez sept singes cynomolggus (Macaca fascicularis), de sexe mâle et femelle, pesant entre 2 et 5 kg.
Un mois avant le début de l'étude, sous anesthésie générale (kétamine + xylazine) huit électrodes (boules d'argent) ont été implantées dans la table osseuse, au niveau des aires frontale, centrale, pariétale et occipitale droites et gauche. L'électrocorticogramme a été enregistré sur un électroencéphalographe REEGA mini-huit (Alvar Electronic) en dérivations monopolaires par rapport à une référence commune.
Les enregistrements ont été réalisés sur des animaux habitués au siège à contention, en position assise, dans une pièce calme mais non insonorisée, en ambiance lumineuse tamisée.
Les huit dérivations EEG ont été analysées simultanément par un Neuromapper 1620 (Neuroscience) qui extrait du signal les transformées de Fourier ("Fast Fourier Transform" : FFT). En fait, 90 échantillons de 2 secondes, soit 3 minutes de tracé exempt d'artefact, ont été analysés. Les données recueillies correspondent à l'amplitude (»V) de chacune des 5 bandes de fréquence EEG classiques selon les bornes suivantes : delta de 0 à 4 Hz ; thêta de 7 à 8 Hz ; alpha de 8 à 13 Hz, bêta₁ de 13 à 20 Hz ; bêta₂ de 20 à 30 Hz.
Pour chacune de ces bandes ont ensuite été calculées : • Les puissances absolues en »V² • les puissances relatives (%), c'est-à-dire la puissance de chacune des bandes de fréquence rapportée à la puissance totale du spectre (power) • la "SEF 95 % (Spectral Edge Frequency 95 %) qui est la fréquence en deçà de laquelle se situent 95 % de la puissance totale du spectre, • le rapport entre fréquences rapides et fréquences lentes : alpha+ bêta/delta + thêta ( α+β/δ+ϑ [formula] )
La dernière ingestion a précédé de 1 heure la seconde administration de diazépam.
Le diazépam (ampoules injectables - Valium® 10 - Roche) a été administré par voie orale, en solution aqueuse, sous un volume de 10 ml/singe, à des doses comprises entre 0,5 mg.kg⁻¹ et 4 mg.kg⁻¹ (doses différentes du fait d'une sensibilité individuelle propre à chaque sujet).
100 (le seuil de probabilité statistique choisi peut paraître élevé ; il est en rapport avec le faible nombre de sujets : n=7). L'ensemble de l'analyse statistique a été obtenu grâce au programme statistique SPSS/PC⁺ (SPSS Inc., Chicago)

souris = details: mouse; for Nombre de passages (moyenne): 60 min before test, controls 5,5
Description: Le test est pratiqué chez des souris NMRI-HAN soumises à une diète hydrique préalable de 18 heures et réparties en séries de 15.
L'appareillage utilisé consiste en une boite en plexiglas dont le sol est constitué de 4 plaques métalliques séparées les unes des autres. Un circuit d'alimentation permet d'établir une différence de potentiel entre deux plaques adjacentes grâce à un contacteur. Le test est pratiqué en plaçant doucement une souris sur une des plaques du fond de l'appareil ; les plaques sont électrifiées chaque fois que la souris passe de l'une à l'autre, de telle sorte qu'elle reçoit alors un choc électrique au niveau des pattes. Les paramètres du choc sont les suivants : durée de l'impulsion électrique égale à 0,5 seconde ; intensité égale à 0,6 milliampères. Ce choc induit chez les animaux une réaction motrice évidente de fuite, la souris traversant souvent 2 à 3 plaques successivement. Les conditions expérimentales adoptées ont été les suivantes : exploration libre pendant 15 secondes, traversée punie pendant la minute suivante, les résultats étant exprimés en nombre de passages "punis" pendant cette minute. Soixante souris ont été réparties de la façon suivante :
Les administrations ont été réalisées par voie intra-gastrique, à partir de solutions aqueuses, sous un volume constant de 20 ml.kg⁻¹, 60 minutes avant le début du test. Les animaux contrôles ont reçu un même volume d'eau distillée.
Les administrations ont été réalisées par voie intra-gastrique, à partir de solutions aqueuses, sous un volume constant de 20 ml.kg⁻¹ par produit 60 minutes avant le début du test. Les animaux contrôles ont reçu un même volume d'eau distillée.
Dans un premier temps a été calculée la DA 50 (dose anxiolytique 50) du Diazépam (Valium® 10 mg - Roche, ampoule 2ml) seul, administré à des doses suivant une progression géométrique de base 0,25 et de raison 2, soit respectivement 0,25, 0,5 l et 2 mg.kg⁻¹.
La DA 50 est déterminée à partir du pourcentage d'animaux tranquillisés. Est considéré comme tranquillisé tout animal dont le nombre de passages punis est égal ou supérieur à 9, c'est-à-dire à une valeur représentant une augmentation d'au moins 50 % par rapport au score moyen d'animaux non traités.
Toutes les administrations ont été réalisées par voie intra-gastrique à partir de solutions aqueuses, sous un volume constant de 20 ml.kg⁻¹ (eau distillée pour le groupe contrôle). […] La veille du test, les souris sont soumises à une diète hydrique de 18 heures. La dernière ingestion est pratiquée une heure avant l'étude, concomitamment avec le diazépam (Valium® 10 mg - Roche, ampoules de 2 ml).

CN1C(=O)CN=C(c2ccccc2)c2cc(Cl)ccc21 [Diazépam, reference compound]
durée de l'action ([1]; diazepam alone 0,5-4 mg.kg⁻¹ P.O.): jusqu'à la 5ème heure | valeurs du rapport α+β/δ+ϑ ([1]; diazepam alone 0,5-4 mg.kg⁻¹ P.O., figure 4): augmentation durable | acmé de l'effet ([1]; diazepam alone 0,5-4 mg.kg⁻¹ P.O., time after ingestion): 45 minutes à une heure | proportion relative de la bande β₂ ([1]; diazepam alone 0,5-4 mg.kg⁻¹ orally, at peak effect one hour after ingestion, reference 20 %): 27% | "SEF 95 %": temps du maximum ([1]; diazepam alone (first test), figure 3): 30 min | Nombre de passages (moyenne) (souris; Valium alone 0,5 mg.kg⁻¹ P.O.): 7,7 | Nombre de passages (moyenne) (souris; Valium alone 0,25 mg.kg⁻¹ P.O.): 7,3 | Nombre de passages (moyenne) (souris; Valium alone 1 mg.kg⁻¹ P.O.): 9,5 | Nombre de passages (moyenne) (souris; Valium alone 2 mg.kg⁻¹ P.O.): 10,6 | DA 50 (dose anxiolytique 50) (souris; diazepam alone P.O., from % tranquillised animals (>= 9 punished crossings)): 0,76 mg.kg⁻¹
